Assays:
[1] = target: T1, human muscarinic M3 receptor (Homo sapiens, UniProt P20309); assay: Cell based potency assessment, hM3 β-lactamase assay (CHO cell β-lactamase); details: CHO cells recombinantly expressing human M3, NFAT-β-lactamase reporter; inhibition of 80 nM carbamyl choline signal, 4 h; IC50 converted by Cheng-Prusoff
T1 construct: expressed in transfected cells; host or cells: CHO (CHO-K1) cells
Method: Cell BASED POTENCY ASSESSMENT at the Human Recombinant M3 Muscarinic Receptor
M3 potency was determined in CHO-K1 cells transfected with the NFAT-Betalactamase gene. CHO (Chinese Hamster Ovary) cells recombinantly expressing the human muscarinic M3 receptor were transfected with the NFAT_β-Lac_Zeo plasmid. Cells were grown in DMEM with Glutamax-1, supplemented with 25 mM HEPES (Life Technologies 32430-027), containing 10% FCS (Foetal Calf Serum; Sigma F-7524), […] Sodium pyruvate (Sigma S-8636), NEAA (non-Essential Amino Acids; Invitrogen 11140-035) and 200 μg/ml Zeocin (Invitrogen R250-01).
hM3 β-Lactamase Assay Protocol
Cells were harvested for assay when they reached 80-90% confluency using enzyme free cell Dissociation Solution (Life technologies 13151-014) incubated with the cells for 5 min at 37° C. in an atmosphere containing 5% CO2. Detached cells were collected in warmed growth media and centrifuged at 2000 rpm for 10 min, washed in PBS (Phosphate Buffered Saline; Life Technologies 14190-094) and centrifuged again as just described. The cells were re-suspended at 2×10^5 cells/ml in growth medium (composition as described above). 20 μl of this cell suspension was added to each well of a 384 well black clear bottomed plate (Greiner Bio One 781091-PFI). The assay buffer used was PBS supplemented with 0.05% Pluronic F-127 (Sigma 9003-11-6) and 2.5% DMSO. Muscarinic M3 receptor signalling was stimulated using 80 nM carbamyl choline (Aldrich N240-9) incubated with the cells for 4 h at 37° C./5% CO2 and monitored at the end of the incubation period using a Tecan SpectraFluor+plate reader (λ−excitation 405 nm, emission 450 nm and 503 nm). M3 receptor antagonists under test were added to the assay at the beginning of the 4 h incubation period and compound activity measured as the concentration dependent inhibition of the carbamyl choline induced signal. Inhibition curves were plotted and IC50 values generated using a 4-parameter sigmoid fit and converted to Ki values using the Cheng-Prusoff correction and the KD value for carbamyl choline in the assay.

[2] = target: T1, human muscarinic M3 receptor; assay: hM3 competition binding assay (3H-NMS, CHO cell membranes); details: CHO cell membranes expressing human M3; 3H-NMS at 5×KD, 24 hr at RT; IC50 corrected by Cheng-Prussoff
Method: Binding Affinity Assessment at the Human Recombinant M3 Muscarinic Receptor
Cell Pellets from CHO (Chinese Hamster Ovary) cells recombinantly expressing the human muscarinic M3 receptor were homogenised in 20 mM HEPES (pH7.4) and centrifuged at 48000×g for 20 min at 4° C. The pellet was re-suspended in buffer and the homogenisation and centrifugation steps repeated. The resulting pellet was re-suspended in 1 ml buffer per 1 ml original packed cell volume and the homogenisation step repeated. Protein estimation was carried out on the suspension and 1 ml aliquots of ˜1 mg/ml frozen at −80° C.
hM3 Competition Binding Assay Protocol
Membranes (5 µg/well) were incubated with ^3H-NMS (at a concentration 5×KD) plus/minus test compound for 24 hr at RT (room temperature) in a 1 ml polystyrene 96-well deep well block. The final assay volume was 200 µl, comprising of: 20 µl plus/minus test compound; 20 µl ^3H-NMS (Perkin Elmer NEN 636) and 160 µl membrane solution. Total Binding was defined with 0.1% DMSO; Non-Specific Binding was defined with 1 µM Atropine. Assay buffer was 20 mM Hepes (pH 7.4).
Once all assay components were added, plates were covered and incubated at room temperature for 24 hrs with shaking. The assay was terminated by rapidly filtering through GF/B Unifilter plates pre-soaked with 0.5% polyethylenimine, using a Packard filtermate harvester, the filter plate was then washed with 3×1 ml 4° C. assay buffer. The filter plates were dried at 45° C. for 1 hour. The bottoms of the filter plates were sealed and 50 µl/well of Microscint ‘0’ added, the top of the plates were sealed with a Topseal. Following 90 mins, the plates were read on an NXT Topcount (1 minute read time per well).
The resulting data was expressed as a percentage of the specific binding (Specific binding=Total binding−Non-Specific Binding). % specific binding versus test compound concentration was plotted to determine an IC50 from a sigmoid curve using an in-house data analysis programme. IC50 values corrected to Ki values by applying the Cheng-Prussoff equation: […]
where IC50 is the concentration of unlabelled drug which inhibits by 50% the specific radioligand binding. [L] is the free radioligand concentrations and KD and Ki are the equilibrium dissociation constants of the radioligand and unlabelled drug respectively.

T1 sequence (P20309 whole entry): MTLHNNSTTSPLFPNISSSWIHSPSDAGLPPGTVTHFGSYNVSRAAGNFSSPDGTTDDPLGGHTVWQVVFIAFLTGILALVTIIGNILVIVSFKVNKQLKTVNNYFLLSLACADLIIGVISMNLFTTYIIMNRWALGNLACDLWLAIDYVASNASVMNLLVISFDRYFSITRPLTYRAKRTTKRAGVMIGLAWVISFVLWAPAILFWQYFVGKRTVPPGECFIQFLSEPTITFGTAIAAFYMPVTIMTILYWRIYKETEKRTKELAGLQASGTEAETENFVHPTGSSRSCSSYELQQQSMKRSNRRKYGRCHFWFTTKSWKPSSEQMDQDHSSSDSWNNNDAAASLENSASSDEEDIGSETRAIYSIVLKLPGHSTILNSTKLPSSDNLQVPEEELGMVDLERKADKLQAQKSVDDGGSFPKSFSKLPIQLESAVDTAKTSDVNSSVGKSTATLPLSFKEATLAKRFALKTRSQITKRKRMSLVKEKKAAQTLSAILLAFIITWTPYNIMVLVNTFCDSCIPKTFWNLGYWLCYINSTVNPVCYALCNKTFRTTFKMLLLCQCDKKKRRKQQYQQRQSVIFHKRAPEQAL

| SMILES | Ki [1] [nM] | Ki [2] [nM] |
| --- | --- | --- |
| O=C(Nc1ccccc1-c1ccccc1)OC1CCN(CCCCCCCCCNC(=O)c2ccc(F)c(O)c2)CC1 [Example 7, Biphenyl-2-yl-carbamic acid 1-[9-(4-fluoro-3-hydroxy-benzoylamino)-nonyl]-piperidin-4-yl ester] | 1.36 | 0.997 |
| O=C(Nc1ccccc1-c1ccccc1)OC1CCN(CCCCCCCCCNC(=O)c2cccc(F)c2O)CC1 [Example 8, Biphenyl-2-yl-carbamic acid 1-[9-(3-fluoro-2-hydroxy-benzoylamino)-nonyl]-piperidin-4-yl ester] | 2.68 | 4.81 |
| CN(CCCCCCCCCN1CCC(OC(=O)Nc2ccccc2-c2ccccc2)CC1)C(=O)c1ccc(F)c(O)c1 [Example 16, Biphenyl-2-yl-carbamic acid 1-{9-[(4-fluoro-3-hydroxy-benzoyl)-methyl-amino]-nonyl}-piperidin-4-yl ester] | 0.389 | 2.98 |
| O=C(Nc1ccccc1-c1ccccc1)OC1CCN(CCCCCCCCCNC(=O)c2ccc(O)cc2Cl)CC1 [Example 21, Biphenyl-2-yl-carbamic acid 1-[9-(2-chloro-4-hydroxy-benzoylamino)-nonyl]-piperidin-4-yl ester] | 0.682 | 1.26 |
| O=C(Nc1ccccc1-c1ccccc1)OC1CCN(CCCCCCCCCNC(=O)c2ccc(F)c(F)c2O)CC1 [Example 12, Biphenyl-2-yl-carbamic acid 1-[9-(3,4-difluoro-2-hydroxy-benzoylamino)-nonyl]-piperidin-4-yl ester] | 7.32 |  |
| O=C(Nc1ccccc1-c1ccccc1)OC1CCN(CCCCCCCCCNC(=O)c2cccc(Cl)c2O)CC1 [Example 11, Biphenyl-2-yl-carbamic acid 1-[9-(3-chloro-2-hydroxy-benzoylamino)-nonyl]-piperidin-4-yl ester] | 8.15 | 2.24 |
| O=C(Nc1ccccc1-c1ccccc1)OC1CCN(CCCCCCCCCNC(=O)c2cc(Cl)cc(Cl)c2O)CC1 [Example 13, Biphenyl-2-yl-carbamic acid 1-[9-(3,5-dichloro-2-hydroxy-benzoylamino)-nonyl]-piperidin-4-yl ester] | 18 |  |
| O=C(Nc1ccccc1-c1ccccc1)OC1CCN(CCCCCCCCCNC(=O)c2cc(F)ccc2O)CC1 [Example 9, Biphenyl-2-yl-carbamic acid 1-[9-(5-fluoro-2-hydroxy-benzoylamino)-nonyl]-piperidin-4-yl ester] | 8.81 |  |
| O=C(Nc1ccccc1-c1ccccc1)OC1CCN(CCCCCCCCCNC(=O)c2ccc(F)cc2O)CC1 [Example 26, Biphenyl-2-yl-carbamic acid 1-[9-(2-hydroxy-4-fluoro-benzoylamino)-nonyl]-piperidin-4-yl ester] | 4.51 |  |
| CN(CCCCCCCCCN1CCC(OC(=O)Nc2ccccc2-c2ccccc2)CC1)Cc1cc(F)ccc1O [Example 47, Biphenyl-2-yl-carbamic acid 1-{9-[(5-fluoro-2-hydroxy-benzyl)-methyl-amino]-nonyl}-piperidin-4-yl ester] |  | 0.529 |
| CN(CCCCCCCCCN1CCC(OC(=O)Nc2ccccc2-c2ccccc2)CC1)Cc1cc(Cl)c(O)c(Cl)c1 [Example 50, Biphenyl-2-yl-carbamic acid 1-{9-[(3,5-dichloro-4-hydroxy-benzyl)-methyl-amino]-nonyl}-piperidin-4-yl ester] |  | 0.22 |

More lines, now with the values ahead:

| Ki [1] [nM] | Ki [2] [nM] | SMILES |
| --- | --- | --- |
| 0.396 | 2.37 | CN(CCCCCCCCCN1CCC(OC(=O)Nc2ccccc2-c2ccccc2)CC1)C(=O)Cc1ccc(O)c(Cl)c1 [Example 15, Biphenyl-2-yl-carbamic acid 1-(9-{[2-(3-chloro-4-hydroxy-phenyl)-acetyl]-methyl-amino}-nonyl)-piperidin-4-yl ester] |
| 2.72 | 6.04 | O=C(Nc1ccccc1-c1ccccc1)OC1CCN(CCCCCCCCCNCc2cc(F)c(Cl)cc2O)CC1 [Example 33, Biphenyl-2-yl-carbamic acid 1-[9-(2-hydroxy-4-chloro-5-fluoro-benzylamino)-nonyl]-piperidin-4-yl ester] |
| 0.84 | 1.05 | O=C(Nc1ccccc1-c1ccccc1)OC1CCN(CCCCCCCCCNCc2cccc(O)c2F)CC1 [Example 2, Biphenyl-2-yl-carbamic acid 1-[9-(2-fluoro-3-hydroxy-benzylamino)-nonyl]-piperidin-4-yl ester] |
| 1.32 | 1.45 | O=C(Nc1ccccc1-c1ccccc1)OC1CCN(CCCCCCCCCNC(=O)c2ccc(Cl)c(O)c2)CC1 [Example 19, Biphenyl-2-yl-carbamic acid 1-[9-(4-chloro-3-hydroxy-benzoylamino)-nonyl]-piperidin-4-yl ester] |
| 1.12 | 0.342 | O=C(Nc1ccccc1-c1ccccc1)OC1CCN(CCCCCCCCCNCc2ccc(Cl)c(O)c2Cl)CC1 [Example 37, Biphenyl-2-yl-carbamic acid 1-[9-(2,4-dichloro-3-hydroxy-benzylamino)-nonyl]-piperidin-4-yl ester] |
| 0.208 | 1.1 | O=C(Nc1ccccc1-c1ccccc1)OC1CCN(CCCCCCCCCNCc2cc(F)c(O)c(F)c2)CC1 [Example 27, Biphenyl-2-yl-carbamic acid 1-[9-(3,5-difluoro-4-hydroxy-benzylamino)-nonyl]-piperidin-4-yl ester] |
| 3.59 | 3.83 | O=C(Nc1ccccc1-c1ccccc1)OC1CCN(CCCCCCCCCNCc2cc(Cl)c(Cl)cc2O)CC1 [Example 28, Biphenyl-2-yl-carbamic acid 1-[9-(2-hydroxy-4,5-dichloro-benzylamino)-nonyl]-piperidin-4-yl ester] |
| 0.96 | 0.787 | O=C(Nc1ccccc1-c1ccccc1)OC1CCN(CCCCCCCCCNCc2ccc(O)c(Cl)c2)CC1 [Example 34, Biphenyl-2-yl-carbamic acid 1-[9-(3-chloro-4-hydroxy-benzylamino)-nonyl]-piperidin-4-yl ester] |
| 0.728 | 2.47 | O=C(Nc1ccccc1-c1ccccc1)OC1CCN(CCCCCCCCCNCc2cc(Cl)cc(Cl)c2O)CC1 [Example 31, Biphenyl-2-yl-carbamic acid 1-[9-(2-hydroxy-3,5-dichloro-benzylamino)-nonyl]-piperidin-4-yl ester] |
| 13.9 |  | O=C(Nc1ccccc1-c1ccccc1)OC1CCN(CCCCCCCCCNC(=O)c2ccc(Cl)cc2O)CC1 [Example 14, Biphenyl-2-yl-carbamic acid 1-[9-(4-chloro-2-hydroxy-benzoylamino)-nonyl]-piperidin-4-yl ester] |
| 17 |  | O=C(Nc1ccccc1-c1ccccc1)OC1CCN(CCCCCCCCCNC(=O)c2cc(Cl)ccc2O)CC1 [Example 24, Biphenyl-2-yl-carbamic acid 1-[9-(2-hydroxy-5-chloro-benzoylamino)-nonyl]-piperidin-4-yl ester] |
|  | 0.212 | CN(CCCCCCCCCN1CCC(OC(=O)Nc2ccccc2-c2ccccc2)CC1)Cc1ccc(O)c(Cl)c1 [Example 44, Biphenyl-2-yl-carbamic acid 1-{9-[(3-chloro-4-hydroxy-benzyl)-methyl-amino]-nonyl}-piperidin-4-yl ester] |

From patent US20100016366A1, “Novel Compounds Active as Muscarinic Receptor Antagonists” (priority 2008, published 2010)
